Assay: Treatment-emergent adverse events, three Phase 3 double-blind studies, LMTM pooled safety population
Assay type: in vivo, human
From the text: Three Phase 3, double-blind, controlled studies of LMTM have been completed (one each in subjects with mild and mild to moderate AD and one in subjects with bvFTD). Results of the AD studies have been published (Gauthier et al., 2016; Wilcock et al., 2018).
In these three studies, 1897 subjects received at least one dose of LMTM (Safety Population [Five additional subjects with AD, participating at one site in Study TRx-237-005, received a dose of study drug but were excluded from all analyses due to GCP violations], 1679 subjects with AD and 218 subjects with bvFTD). Of these, 860 subjects received the control (LMTM 8 mg/day, 750 with AD and 110 with bvFTD) and 1037 subjects received at least one dose of LMTM in the higher doses of 150 to 250 mg/day (929 with AD and 108 with bvFTD).
The incidence of the most common TEAEs are summarised by dose in the following Table EX1. This includes TEAEs that occurred at an incidence of ≥2.0% either in subjects randomised to LMTM 8 mg/day or higher doses (150 to 250 mg/day). The subset of TEAEs that were severe in intensity are also included.
The TEAEs are further analysed by using groupings of related MedDRA (Medical Dictionary for Regulatory Activities) preferred terms to better estimate the incidence of potentially treatment related adverse events. The incidence of all groupings for subjects categorised by dose (8 mg/day versus higher doses of 150 to 250 mg/day) is shown in the following Table EX2: […]

[1] = LMTM 8 mg/day (N = 860), Severe Intensity
[2] = subjects treated with LMTM 8 mg/day

CN(C)c1ccc2c(c1)Sc1cc(N(C)C)ccc1N2 [LMTM, leuco-methylthioninium bis(hydromethanesulfonate)]
Grouped TEAE incidence: Behavioral Symptoms (LMTM 8 mg/day (N = 860)): 114 (13.3%) n (%)
Grouped TEAE incidence: Falls and Related Terms (LMTM 8 mg/day (N = 860)): 188 (21.9%) n (%)
Grouped TEAE incidence: Hepatic Function Impairment (LMTM 8 mg/day (N = 860)): 13 (1.5%) n (%)
Grouped TEAE incidence: Hypersensitivity (LMTM 8 mg/day (N = 860)): 42 (4.9%) n (%)
Grouped TEAE incidence: Ischaemic Events, Inclusive of Myocardial Infarction (LMTM 8 mg/day (N = 860)): 20 (2.3%) n (%)
Grouped TEAE incidence: Psychotic Symptoms (LMTM 8 mg/day (N = 860)): 28 (3.3%) n (%)
Grouped TEAE incidence: Renal Function Impairment (LMTM 8 mg/day (N = 860)): 29 (3.4%) n (%)
Grouped TEAE incidence: Renal and Urinary Disorders (Including Infections) (LMTM 8 mg/day (N = 860)): 135 (15.7%) n (%)
Grouped TEAE incidence: Sleep Disorders (LMTM 8 mg/day (N = 860)): 41 (4.8%) n (%)
Grouped TEAE incidence: Targeted Gastrointestinal Events (LMTM 8 mg/day (N = 860)): 183 (21.3%) n (%)
No. (%) of Subjects Reporting at Least One TEAE (LMTM 8 mg/day (N = 860), All): 720 (83.7%) n (%)
TEAE incidence: Abdominal pain (LMTM 8 mg/day (N = 860), All): 16 (1.9%) n (%)
TEAE incidence: Abdominal pain upper (LMTM 8 mg/day (N = 860), All): 10 (1.2%) n (%)
TEAE incidence: Agitation (LMTM 8 mg/day (N = 860), All): 46 (5.3%) n (%)
TEAE incidence: Anaemia (LMTM 8 mg/day (N = 860), All): 19 (2.2%) n (%)
TEAE incidence: Anxiety (LMTM 8 mg/day (N = 860), All): 52 (6.0%) n (%)
TEAE incidence: Arthralgia (LMTM 8 mg/day (N = 860), All): 28 (3.3%) n (%)
TEAE incidence: Atrial fibrillation (LMTM 8 mg/day (N = 860), All): 17 (2.0%) n (%)
TEAE incidence: Back pain (LMTM 8 mg/day (N = 860), All): 31 (3.6%) n (%)
TEAE incidence: Blood creatine phosphokinase increased (LMTM 8 mg/day (N = 860), All): 18 (2.1%) n (%)
TEAE incidence: Blood folate decreased (LMTM 8 mg/day (N = 860), All): 45 (5.2%) n (%)
TEAE incidence: Bronchitis (LMTM 8 mg/day (N = 860), All): 27 (3.1%) n (%)
TEAE incidence: Cerebral microhaemorrhage (LMTM 8 mg/day (N = 860), All): 24 (2.8%) n (%)
TEAE incidence: Confusional state (LMTM 8 mg/day (N = 860), All): 22 (2.6%) n (%)
TEAE incidence: Constipation (LMTM 8 mg/day (N = 860), All): 23 (2.7%) n (%)
TEAE incidence: Contusion (LMTM 8 mg/day (N = 860), All): 24 (2.8%) n (%)
TEAE incidence: Cough (LMTM 8 mg/day (N = 860), All): 37 (4.3%) n (%)
TEAE incidence: Decreased appetite (LMTM 8 mg/day (N = 860), All): 13 (1.5%) n (%)
TEAE incidence: Dehydration (LMTM 8 mg/day (N = 860), All): 17 (2.0%) n (%)
TEAE incidence: Depression (LMTM 8 mg/day (N = 860), All): 41 (4.8%) n (%)
TEAE incidence: Diarrhoea (LMTM 8 mg/day (N = 860), All): 109 (12.7%) n (%)
TEAE incidence: Dizziness (LMTM 8 mg/day (N = 860), All): 49 (5.7%) n (%)
TEAE incidence: Dysuria (LMTM 8 mg/day (N = 860), All): 6 (0.7%) n (%)
TEAE incidence: Fall (LMTM 8 mg/day (N = 860), All): 90 (10.5%) n (%)
TEAE incidence: Fatigue (LMTM 8 mg/day (N = 860), All): 26 (3.0%) n (%)
TEAE incidence: Folate deficiency (LMTM 8 mg/day (N = 860), All): 17 (2.0%) n (%)
TEAE incidence: Haemoglobin decreased (LMTM 8 mg/day (N = 860), All): 6 (0.7%) n (%)
TEAE incidence: Hallucination (LMTM 8 mg/day (N = 860), All): 13 (1.5%) n (%)
TEAE incidence: Headache (LMTM 8 mg/day (N = 860), All): 55 (6.4%) n (%)
TEAE incidence: Hypertension (LMTM 8 mg/day (N = 860), All): 20 (2.3%) n (%)
TEAE incidence: Insomnia (LMTM 8 mg/day (N = 860), All): 29 (3.4%) n (%)
TEAE incidence: Laceration (LMTM 8 mg/day (N = 860), All): 17 (2.0%) n (%)
TEAE incidence: Micturition urgency (LMTM 8 mg/day (N = 860), All): 11 (1.3%) n (%)
TEAE incidence: Nasopharyngitis (LMTM 8 mg/day (N = 860), All): 40 (4.7%) n (%)
TEAE incidence: Nausea (LMTM 8 mg/day (N = 860), All): 39 (4.5%) n (%)
TEAE incidence: Oedema peripheral (LMTM 8 mg/day (N = 860), All): 19 (2.2%) n (%)
TEAE incidence: Pain in extremity (LMTM 8 mg/day (N = 860), All): 19 (2.2%) n (%)
TEAE incidence: Pollakiuria (LMTM 8 mg/day (N = 860), All): 19 (2.2%) n (%)
TEAE incidence: Rash (LMTM 8 mg/day (N = 860), All): 21 (2.4%) n (%)
TEAE incidence: Suicidal ideation (LMTM 8 mg/day (N = 860), All): 27 (3.1%) n (%)
TEAE incidence: Syncope (LMTM 8 mg/day (N = 860), All): 26 (3.0%) n (%)
TEAE incidence: Tremor (LMTM 8 mg/day (N = 860), All): 20 (2.3%) n (%)
TEAE incidence: Upper respiratory tract infection (LMTM 8 mg/day (N = 860), All): 35 (4.1%) n (%)
TEAE incidence: Urinary incontinence (LMTM 8 mg/day (N = 860), All): 34 (4.0%) n (%)
TEAE incidence: Urinary tract infection (LMTM 8 mg/day (N = 860), All): 76 (8.8%) n (%)
TEAE incidence: Vitamin B12 decreased (LMTM 8 mg/day (N = 860), All): 23 (2.7%) n (%)
TEAE incidence: Vomiting (LMTM 8 mg/day (N = 860), All): 20 (2.3%) n (%)
TEAE incidence: Weight decreased (LMTM 8 mg/day (N = 860), All): 18 (2.1%) n (%)
No. (%) of Subjects Reporting at Least One TEAE [1]: 86 (10.0%) n (%)
TEAE incidence: Abdominal pain [1]: 1 (0.1%) n (%)
TEAE incidence: Abdominal pain upper [1]: 1 (0.1%) n (%)
TEAE incidence: Agitation [1]: 1 (0.1%) n (%)
TEAE incidence: Anaemia [1]: 1 (0.1%) n (%)
TEAE incidence: Anxiety [1]: 0 n (%)
TEAE incidence: Arthralgia [1]: 0 n (%)
TEAE incidence: Atrial fibrillation [1]: 3 (0.3%) n (%)
TEAE incidence: Back pain [1]: 1 (0.1%) n (%)
TEAE incidence: Blood creatine phosphokinase increased [1]: 0 n (%)
TEAE incidence: Blood folate decreased [1]: 0 n (%)
TEAE incidence: Bronchitis [1]: 0 n (%)
TEAE incidence: Cerebral microhaemorrhage [1]: 0 n (%)
TEAE incidence: Confusional state [1]: 2 (0.2%) n (%)
TEAE incidence: Constipation [1]: 2 (0.2%) n (%)
TEAE incidence: Contusion [1]: 0 n (%)
TEAE incidence: Cough [1]: 0 n (%)
TEAE incidence: Decreased appetite [1]: 0 n (%)
TEAE incidence: Dehydration [1]: 4 (0.5%) n (%)
TEAE incidence: Depression [1]: 0 n (%)
TEAE incidence: Diarrhoea [1]: 5 (0.6%) n (%)
TEAE incidence: Dizziness [1]: 3 (0.3%) n (%)
TEAE incidence: Dysuria [1]: 0 n (%)
TEAE incidence: Fall [1]: 4 (0.5%) n (%)
TEAE incidence: Fatigue [1]: 0 n (%)
TEAE incidence: Folate deficiency [1]: 0 n (%)
TEAE incidence: Haemoglobin decreased [1]: 0 n (%)
TEAE incidence: Hallucination [1]: 0 n (%)
TEAE incidence: Headache [1]: 1 (0.1%) n (%)
TEAE incidence: Hypertension [1]: 0 n (%)
TEAE incidence: Insomnia [1]: 0 n (%)
TEAE incidence: Laceration [1]: 0 n (%)
TEAE incidence: Micturition urgency [1]: 0 n (%)
TEAE incidence: Nasopharyngitis [1]: 0 n (%)
TEAE incidence: Nausea [1]: 1 (0.1%) n (%)
TEAE incidence: Oedema peripheral [1]: 0 n (%)
TEAE incidence: Pain in extremity [1]: 1 (0.1%) n (%)
TEAE incidence: Pollakiuria [1]: 0 n (%)
TEAE incidence: Rash [1]: 0 n (%)
TEAE incidence: Suicidal ideation [1]: 2 (0.2%) n (%)
TEAE incidence: Syncope [1]: 1 (0.1%) n (%)
TEAE incidence: Tremor [1]: 0 n (%)
TEAE incidence: Upper respiratory tract infection [1]: 0 n (%)
TEAE incidence: Urinary incontinence [1]: 0 n (%)
TEAE incidence: Urinary tract infection [1]: 1 (0.1%) n (%)
TEAE incidence: Vitamin B12 decreased [1]: 0 n (%)
TEAE incidence: Vomiting [1]: 0 n (%)
TEAE incidence: Weight decreased [1]: 0 n (%)
Grouped TEAE incidence: Falls and Related Terms [2]: 22%
Grouped TEAE incidence: GI events [2]: 21%
Grouped TEAE incidence: Renal and Urinary Disorders (Including Infections) [2]: 16%
Grouped TEAE incidence: behavioural symptoms [2]: 13%
Grouped TEAE incidence: terms indicative of anaemia [2]: 13%
